Data reported in article PMC12415548 (RSC Advances, 2025).
≈ marks a conversion by molar mass, not a printed value. Like-named read-outs stand apart in the source and are kept apart here.

Experiments:
[1] = test system: MDA-MB-231 breast cancer cell line; test: MTT cytotoxicity assay, MDA-MB-231; type: cell-based; conditions: Homo sapiens, MDA-MB-231, read-out: IC50 (μg mL^−1) ± SD MDA-MB231
AChE = AChE (Homo sapiens, UniProt P22303); test: Anticholinesterase inhibitory assay; type: biochemical
MRSA biofilm = test: Antibiofilm activity, crystal violet assay; type: cell-based, Staphylococcus aureus
MDA-MB-231 cells = test: Apoptosis induction in MDA-MB-231 cells; type: cell-based, human; conditions: MDA-MB-231 cells (Fig. 4)
[2] = test system: MRSA (Staphylococcus aureus ATCC 43300); test: Anti-MRSA MIC, broth microdilution; type: cell-based; conditions: for anti-MRSA potency compared to Linezolid: MIC comparison; for Interpretation (of MIC): MRSA, Table 3
[3] = test system: MRSA (Staphylococcus aureus ATCC 43300); test: Minimum bactericidal concentration; type: cell-based; conditions: for Interpretation (of MBC/MIC): Table 4
normal HDF cells = test: Apoptosis/cytotoxicity in normal HDF cells
[4] = test system: MCF-7 breast cancer cell line; test: MTT cytotoxicity assay, MCF-7; type: cell-based; conditions: Homo sapiens, MCF7, read-out: IC50 (μg mL^−1) ± SD MCF7
MCF-7 cells = test: Apoptosis induction in MCF-7 cells; type: cell-based, human; conditions: MCF-7 cells (Fig. 4)
[5] = test system: MCF-7 breast cancer cell line; conditions: read-out: IC50 in MCF-7; known value quoted for comparison; no reference given; cited from earlier work
MRSA = test: Time-kill assay against MRSA; type: cell-based, Staphylococcus aureus; conditions: 0-24 h

AChE, sequence (P22303 32-614): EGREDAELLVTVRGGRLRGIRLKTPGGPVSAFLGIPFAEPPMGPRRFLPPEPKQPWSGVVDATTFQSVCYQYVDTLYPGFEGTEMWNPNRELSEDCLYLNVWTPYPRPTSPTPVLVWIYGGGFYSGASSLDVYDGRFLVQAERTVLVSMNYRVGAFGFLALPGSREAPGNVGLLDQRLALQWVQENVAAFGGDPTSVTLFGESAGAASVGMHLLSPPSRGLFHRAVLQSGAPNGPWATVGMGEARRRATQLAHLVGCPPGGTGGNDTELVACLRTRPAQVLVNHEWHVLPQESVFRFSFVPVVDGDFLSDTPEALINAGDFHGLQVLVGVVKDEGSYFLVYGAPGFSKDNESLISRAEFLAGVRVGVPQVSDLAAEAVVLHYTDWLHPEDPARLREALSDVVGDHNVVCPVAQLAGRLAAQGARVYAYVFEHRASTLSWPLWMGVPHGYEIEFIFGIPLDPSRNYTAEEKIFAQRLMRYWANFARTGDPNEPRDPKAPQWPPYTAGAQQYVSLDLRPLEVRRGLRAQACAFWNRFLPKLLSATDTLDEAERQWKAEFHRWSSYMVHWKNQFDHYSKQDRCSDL

SMILES	IC50 [1] [µg/mL]	IC50 (AChE) [nM]	apoptosis induction (MDA-MB-231 cells)	anti-MRSA potency compared to Linezolid [2]	Interpretation (of MIC) [2]	MBC/MIC [3]	Interpretation (of MBC/MIC) [3]	apoptosis / cytotoxicity in normal cells (normal HDF cells)	IC50 [4] [µg/mL]	apoptosis induction (MCF-7 cells)	other results
CN1C(=O)/C(=N\Nc2ncc(-c3cc4ccccc4oc3=O)s2)c2cc(Cl)ccc21 [Compound 5, (Z)-5-chloro-1-methyl-3-(2-(5-(2-oxo-2H-chromen-3-yl)thiazol-2-yl)hydrazono)indolin-2-one]	14.4 ± 1.89 (≈ 33.1 µM)	99.8	moderate apoptosis	superior potency	Extremely potent	5.7	Moderate bactericidal	significantly lower cytotoxicity	10.8 ± 1.19 (≈ 24.8 µM)	moderate apoptosis	inhibition at 1.3 µg/mL (MRSA biofilm; Staphylococcus aureus, MRSA, read-out: inhibition of MRSA biofilm formation): ~40%; eradication of preformed MRSA biofilms (MRSA biofilm; various concentrations (Fig. 8Z)): eradication efficiency increasing in a concentration-dependent manner
CCc1ccc(N2C(=O)/C(=C3/C(=O)N(C)c4ccc(Cl)cc43)NC2=S)cc1 [Compound 9, (Z)-5-chloro-3-(1-(4-ethylphenyl)-5-oxo-2-thioxoimidazolidin-4-ylidene)-1-methylindolin-2-one]	28.4 ± 2.19 (≈ 71.4 µM)	302	–	significantly less potent	Weak activity	–	–	–	24 ± 1.49 (≈ 60.3 µM)	–	–
COc1cccc2c1C(=O)c1c(O)c3c(c(O)c1C2=O)C[C@@](O)(C(=O)CO)C[C@@H]3O[C@H]1C[C@H](N)[C@H](O)[C@H](C)O1 [Doxorubicin, reference compound]	36.6 ± 2.12 (≈ 67.3 µM)	–	–	–	–	–	–	–	25.1 ± 1.67 (≈ 46.3 µM)	–	–
CC1(C)CCC(c2ccc(Cl)cc2)=C(CN2CCN(c3ccc(C(=O)NS(=O)(=O)c4ccc(N[C@H](CCN5CCOCC5)CSc5ccccc5)c(S(=O)(=O)C(F)(F)F)c4)cc3)CC2)C1 [Navitoclax, reference compound]	–	–	high levels of apoptosis	–	–	–	–	high levels of apoptosis	–	high levels of apoptosis	IC50 [5]: 1000 nM
CC(=O)NC[C@H]1CN(c2ccc(N3CCOCC3)c(F)c2)C(=O)O1 [Linezolid, reference compound]	–	–	–	–	–	17.6	Bacteriostatic	–	–	–	time-kill outcome (MRSA): remained bacteriostatic, showing no significant kill at any time point
CN1C(=S)N(c2ccccc2)C(=O)/C1=C1/C(=O)N(C)c2ccc(Cl)cc21 [Compound 12, (Z)-5-chloro-1-methyl-3-(3-methyl-5-oxo-1-phenyl-2-thioxoimidazolidin-4-ylidene)indolin-2-one]	27.3 ± 2.01 (≈ 71.1 µM)	–	–	–	–	–	–	–	16 ± 1.15 (≈ 41.7 µM)	–	–
